Experimental data as given in ChEMBL document CHEMBL5042487, “Design, synthesis, and biological activity evaluation of 2-(benzo[b]thiophen-2-yl)-4-phenyl-4,5-dihydrooxazole derivatives as broad-spectrum antifungal agents” (Eur J Med Chem, 2022).
Values after ≈ are worked out from the molar mass of the structure shown.

Assays:
Candida albicans [1] = experiment: Antifungal activity against Candida albicans SC5314 assessed as inhibition of fungal growth by NCCLS protocol based method; assay type: functional
Candida albicans [2] = experiment: Antifungal activity against Candida albicans GIM 2.194 assessed as inhibition of fungal growth by NCCLS protocol based method; assay type: functional
Cryptococcus neoformans = experiment: Antifungal activity against Cryptococcus neoformans GIM 2.209 assessed as inhibition of fungal growth by NCCLS protocol based method; assay type: functional
Candida tropicalis = experiment: Antifungal activity against Candida tropicalis GIM 2.183 assessed as inhibition of fungal growth by NCCLS protocol based method; assay type: functional
Aspergillus fumigatus = experiment: Antifungal activity against Aspergillus fumigatus CGMCC 3.7795 assessed as inhibition of fungal growth by NCCLS protocol based method; assay type: functional
[3] = Metabolic stability in human liver microsomes assessed as half life at 100 uM pre-incubated for 10 mins followed by NADPH-regenerating system and measured upto 60 mins by LC-MS/MS analysis; assay type: ADME, Microsome; details: time <=70 min
Candida albicans [4] = experiment: Antifungal activity against fluconazole and itraconazole resistant Candida albicans 17# assessed as inhibition of fungal growth by NCCLS protocol based method; assay type: functional
Candida albicans [5] = experiment: Antifungal activity against fluconazole resistant Candida albicans CaR assessed as inhibition of fungal growth by NCCLS protocol based method; assay type: functional

SMILES | MIC (Candida albicans [1]) [µg/mL] | MIC (Candida albicans [2]) [µg/mL] | MIC (Cryptococcus neoformans) [µg/mL] | MIC (Candida tropicalis) [µg/mL] | MIC (Aspergillus fumigatus) [µg/mL] | half-life at 100 µM [3] [min] | MIC (Candida albicans [4]) [µg/mL] | MIC (Candida albicans [5]) [µg/mL]
Fc1ccc(C2(Cn3cncn3)COC(c3ccc(-c4ccccc4F)cc3)=N2)cc1 (centres undefined) | < 0.03 | < 0.03 | > 64 | 0.06 (≈ 0.144 µM) | > 64 |  |  | 
Fc1ccc(C2(Cn3cncn3)COC(c3ccc(-c4ccoc4)cc3)=N2)cc1 (centres undefined) | < 0.03 | < 0.03 | 0.25 (≈ 0.644 µM) | 0.125 (≈ 0.322 µM) | 0.25 (≈ 0.644 µM) | 18.6 |  | 
FC(F)(F)Oc1ccc2cc(C3=NC(Cn4cncn4)(c4ccccc4)CO3)sc2c1 (centres undefined) | 0.06 (≈ 0.135 µM) | > 16 | > 64 | > 16 | > 64 |  |  | 
N#Cc1ccc2sc(C3=NC(Cn4cncn4)(c4ccccc4)CO3)cc2c1 (centres undefined) | > 16 | > 16 | > 64 | > 16 | > 64 |  |  | 
Fc1ccc(C2(Cn3cncn3)COC(c3cc4ccc(Br)cc4s3)=N2)c(F)c1 (centres undefined) | < 0.03 | < 0.03 | 0.5 (≈ 1.05 µM) | < 0.03 | > 64 |  |  | 
c1ccc(COc2ccc(C3=NC(Cn4cncn4)(c4ccccc4)CO3)cc2)cc1 (centres undefined) | > 16 | > 16 | > 64 | > 64 | > 64 |  |  | 
Clc1ccc2sc(C3=NC(Cn4cncn4)(c4ccccc4)CO3)cc2c1 (centres undefined) | 0.5 (≈ 1.27 µM) | > 16 | > 64 | > 16 | 32 (≈ 81 µM) |  |  | 
Fc1ccc(C2(Cn3cncn3)COC(c3cc4ccc(Br)cc4s3)=N2)cc1 (centres undefined) | < 0.03 | 0.06 (≈ 0.131 µM) | 1 (≈ 2.19 µM) | 0.13 (≈ 0.284 µM) | 2 (≈ 4.37 µM) |  | > 64 | 0.5 (≈ 1.09 µM)
c1ccc(C2(Cn3cncn3)COC(c3cc4ccccc4o3)=N2)cc1 (centres undefined) | > 16 | > 16 | 2 (≈ 5.81 µM) | > 64 | 8 (≈ 23.2 µM) |  |  | 
FC(F)(F)Oc1ccc2sc(C3=NC(Cn4cncn4)(c4ccccc4)CO3)cc2c1 (centres undefined) | < 0.03 | 0.06 (≈ 0.135 µM) | > 64 | 0.25 (≈ 0.563 µM) | > 64 |  |  | 
Fc1cc(F)cc(C2(Cn3cncn3)COC(c3cc4ccc(Br)cc4s3)=N2)c1 (centres undefined) | 0.06 (≈ 0.126 µM) | 0.06 (≈ 0.126 µM) | 0.25 (≈ 0.526 µM) | 0.125 (≈ 0.263 µM) | > 64 |  |  | 
Fc1ccc(C2(Cn3cncn3)COC(c3cc4ccc(F)cc4s3)=N2)cc1 (centres undefined) | 0.125 (≈ 0.315 µM) | 0.5 (≈ 1.26 µM) | 2 (≈ 5.05 µM) | 0.25 (≈ 0.631 µM) | 1 (≈ 2.52 µM) |  | > 64 | > 64
c1ccc(-c2nnc(-c3ccc(C4=NC(Cn5cncn5)(c5ccccc5)CO4)cc3)o2)cc1 (centres undefined) | > 16 | > 16 | > 64 | > 64 | > 64 |  |  | 
Fc1cccc(C2(Cn3cncn3)COC(c3cc4ccc(Cl)cc4s3)=N2)c1 (centres undefined) | < 0.03 | < 0.03 | 0.25 (≈ 0.606 µM) | 4 (≈ 9.69 µM) | 1 (≈ 2.42 µM) |  | > 64 | > 64
c1ccc(-c2ccc(C3=NC(Cn4cncn4)(c4ccccc4)CO3)s2)cc1 (centres undefined) | > 16 | > 16 | 0.5 (≈ 1.29 µM) | > 64 | 4 (≈ 10.3 µM) |  |  | 
c1ccc(C2(Cn3cncn3)COC(c3nc4ccccc4s3)=N2)cc1 (centres undefined) | > 16 | > 16 | > 64 | > 64 | > 64 |  |  | 
Fc1cccc(C2(Cn3cncn3)COC(c3cc4ccc(Br)cc4s3)=N2)c1 (centres undefined) | < 0.03 | < 0.03 | 0.25 (≈ 0.547 µM) | < 0.03 | 2 (≈ 4.37 µM) |  | > 64 | > 64
CC(=O)N1CCN(c2ccc(C3=NC(Cn4cncn4)(c4ccccc4)CO3)cc2)CC1 (centres undefined) | > 16 | > 16 | > 64 | > 64 | > 64 |  |  | 
Brc1ccc2sc(C3=NC(Cn4cncn4)(c4ccccc4)CO3)cc2c1 (centres undefined) | > 16 | > 16 | > 64 | > 16 | > 64 |  |  | 
